In the NIST ThermoML archive (doi:10.1021/je300312c):
Several values for one entry are separate records, joined by “and”; a condition that tells them apart may be missing. Identical values can stand only once.

Legend:
[1] = for vapor or sublimation pressure: Transpiration method
[2] = Molar enthalpy of transition or fusion; conditions: Crystal; DSC

CCCCCn1cnc2ccccc21 [1-pentyl-1H-benzimidazole]
[1], Liquid
Conditions | vapor or sublimation pressure
324.7 K | 0.00028 kPa
329.1 K | 0.00041 kPa
332 K | 0.00054 kPa
335.1 K | 0.00073 kPa
338.3 K | 0.0009 kPa
341.2 K | 0.00118 kPa
342.2 K | 0.00124 kPa
344 K | 0.00158 kPa
347.3 K | 0.00203 kPa
350.1 K | 0.00245 kPa
350.3 K | 0.00238 kPa
353.2 K | 0.00303 kPa
353.3 K | 0.00329 kPa
356.2 K | 0.00402 kPa
356.6 K | 0.00437 kPa
359.4 K | 0.00534 kPa
361.7 K | 0.00609 kPa and 0.0063 kPa
364.3 K | 0.00768 kPa and 0.0074 kPa
366.7 K | 0.00884 kPa
369.7 K | 0.0109 kPa
372.8 K | 0.0129 kPa
375.8 K | 0.01595 kPa

CCCn1cnc2ccccc21 [1-propyl-1H-benzimidazole]
[1], Liquid
Conditions | vapor or sublimation pressure [kPa]
326.7 K | 0.00166
329.1 K | 0.00202
331.7 K | 0.00262
333.9 K | 0.00298
334.3 K | 0.00312
336.6 K | 0.00377
339.2 K | 0.0047
341.4 K | 0.00546
344.2 K | 0.00671
346.9 K | 0.00797
349.3 K | 0.00969
351.8 K | 0.01262
354.3 K | 0.01444
356.8 K | 0.01719
359.3 K | 0.01949
361.8 K | 0.02422
364.3 K | 0.02965
366.6 K | 0.03507
369.3 K | 0.0417
372.4 K | 0.05004
375.9 K | 0.06251

Cn1cnc2ccccc21 [1-methylbenzimidazole]
[1]
Conditions | Normal melting temperature [°C] | vapor or sublimation pressure [kPa]
300.7 K, Crystal | – | 0.0002
303.2 K, Crystal | – | 0.00026
305.6 K, Crystal | – | 0.00034
308.1 K, Crystal | – | 0.00046
311 K, Crystal | – | 0.00061
313.7 K, Crystal | – | 0.00082
314.2 K, Crystal | – | 0.00087
314.2 K, Liquid | – | 0.00115
316.6 K, Liquid | – | 0.00139
316.7 K, Crystal | – | 0.00112
319 K, Liquid | – | 0.00172
319.6 K, Crystal | – | 0.00154
321.5 K, Liquid | – | 0.00209
322.5 K, Crystal | – | 0.00213
324.5 K, Crystal | – | 0.00249
324.5 K, Liquid | – | 0.00278
325.5 K, Crystal | – | 0.0027
326.9 K, Crystal | – | 0.00316
326.9 K, Liquid | – | 0.00332
329.5 K, Liquid | – | 0.00402
331.5 K, Liquid | – | 0.0046
334.5 K, Liquid | – | 0.00598
335.9 K, Liquid | – | 0.00673
336.9 K, Liquid | – | 0.00709
337.5 K, Liquid | – | 0.00742
339.6 K, Liquid | – | 0.00868
341.6 K, Liquid | – | 0.01014
344.4 K, Liquid | – | 0.01267
347.2 K, Liquid | – | 0.0155
349.4 K, Liquid | – | 0.01858
351.8 K, Liquid | – | 0.02168
354.1 K, Liquid | – | 0.02462
354.4 K, Liquid | – | 0.0258
356.5 K, Liquid | – | 0.029
358.9 K, Liquid | – | 0.03371
361.3 K, Liquid | – | 0.0389
364 K, Liquid | – | 0.04752
366.8 K, Liquid | – | 0.0558
368.1 K, Liquid | – | 0.06162
369.4 K, Liquid | – | 0.06627
372.6 K, Liquid | – | 0.07877
374.5 K, Liquid | – | 0.08885
376 K, Liquid | – | 0.09738
Crystal, DTA | 60.1 | –

Conditions | Molar enthalpy of transition or fusion [kcal/mol]
[2] | 3.23

CCn1cnc2ccccc21 [1-ethyl-1H-benzimidazole]
[1], Liquid
Conditions | vapor or sublimation pressure [kPa]
328.8 K | 0.00273
331.8 K | 0.00334
334.3 K | 0.0041
336.7 K | 0.00481
339.2 K | 0.00591
341.7 K | 0.00714
343.7 K | 0.00826
346.7 K | 0.01029
349.1 K | 0.01206
351.7 K | 0.01365
353.9 K | 0.01678
356.7 K | 0.01954
358.9 K | 0.02439
361.2 K | 0.02801
363.9 K | 0.03343
366.6 K | 0.03948
368.9 K | 0.04573
372.1 K | 0.05679
375.1 K | 0.06706
